Values of other authors as cited in patent publication US20170274058A1, “Cancer Stem Cell-Targeted Cancer Therapy” (priority 2006, published 2017).
Where a name gives a salt, the structure may show the parent alone.

Test system: cancer stem cells, including leukemia stem cells
Details: background statement, references in Table 1

Compound	resistance of cancer stem cells to the therapy
Nc1ccn([C@@H]2O[C@H](CO)[C@@H](O)[C@@H]2O)c(=O)n1 [Ara-C, cytarabine]	relatively resistant
COc1cccc2c1C(=O)c1c(O)c3c(c(O)c1C2=O)C[C@@](O)(C(C)=O)C[C@@H]3O[C@H]1C[C@H](N)[C@H](O)[C@H](C)O1 [daunorubicin]	relatively resistant
CC(C)C[C@H](NC(=O)[C@H](Cc1ccccc1)NC(=O)c1cnccn1)B(O)O [Velcade®]	relatively resistant
Cc1ccc(NC(=O)c2ccc(CN3CCN(C)CC3)cc2)cc1Nc1nccc(-c2cccnc2)n1 [Gleevec®, imatinib mesylate]	relatively resistant
